Test systems include HCT-116 colon; SNB-19 CNS; SNB-75 CNS; PC-3 prostate; UACC-62 melanoma; COLO 205 colon; OVCAR-4 ovarian; RPMI-8226 leukemia; HCT-15 colon; IGROV1 ovarian.
Common to all, as to experiment: DTP human tumour cell line panel, 48 h

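Grown in 96-well plates, cells were treated for 48 hours with each compound at five concentrations. Insufficient inhibition: endpoint recorded as highest concentration tested. GI50 is the concentration that inhibits growth by half. Definition used: TGI = concentration required for complete inhibition of growth.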

Regarding `O=C(O)c1ccc(S(=O)(=O)N=Nc2c(O)[nH]c3ccccc23)cc1`, the TGI in the experiment on HCT-116 colon, in the experiment on SNB-19 CNS, in the experiment with SNB-75 CNS, in the experiment with PC-3 prostate, with UACC-62 melanoma and with COLO 205 colon was > 100 µM each time. The TGI in the experiment on OVCAR-4 ovarian, with RPMI-8226 leukemia, with HCT-15 colon and with IGROV1 ovarian was > 100 µM each time.

Take `COc1cc(/C=C2\CC3C4CC=C5C[C@@H](N6CCCC6)CC[C@]5(C)C4CC[C@]3(C)[C@H]2OC(C)=O)ccc1OCCN1CCCCC1` (stereo partly specified): the GI50 (in general, the concentration at which growth is held to half of that of the control) in the experiment on HCT-116 colon is 0.275 µM; in the experiment with SNB-19 CNS, 2.84 µM; in the experiment on SNB-75 CNS it was 2.56 µM; in the experiment with PC-3 prostate, 1.54 µM; with UACC-62 melanoma it was 1.44 µM; in the experiment on OVCAR-4 ovarian, 3.03 µM. Further, the concentration for 50% growth inhibition (GI50) in the experiment with RPMI-8226 leukemia is 0.0109 µM; in the experiment on HCT-15 colon it was 1.37 µM; in the experiment with IGROV1 ovarian, 1.59 µM. In addition, the total growth inhibition concentration (TGI) (commonly the concentration at which net growth stops) stood at 0.85 µM in the experiment on HCT-116 colon; 5.83 µM in the experiment on SNB-19 CNS; 5.03 µM in the experiment on SNB-75 CNS; 3.72 µM in the experiment with PC-3 prostate; 2.81 µM in the experiment with UACC-62 melanoma; 8.98 µM in the experiment on OVCAR-4 ovarian. Besides, the TGI in the experiment on RPMI-8226 leukemia was 0.119 µM; in the experiment with HCT-15 colon, 2.8 µM; with IGROV1 ovarian, 3.23 µM.

Take `COc1cc(-c2nn(C(=O)NS(=O)(=O)c3ccc(C)cc3)cc2-c2ccncc2)ccc1Cl`: the GI50 in the experiment on HCT-116 colon is 5.63 µM; in the experiment with SNB-19 CNS it was 4.9 µM; in the experiment on SNB-75 CNS, 1.69 µM; in the experiment with PC-3 prostate it was 16.1 µM; in the experiment on UACC-62 melanoma, 2.28 µM; in the experiment on COLO 205 colon, 3.89 µM. Moreover, the GI50 in the experiment with OVCAR-4 ovarian is 3.26 µM; in the experiment with RPMI-8226 leukemia, 15.5 µM; in the experiment on HCT-15 colon, 10.2 µM; in the experiment with IGROV1 ovarian, 5.1 µM. In addition, the TGI was 32.2 µM in the experiment on HCT-116 colon; 38.5 µM in the experiment on SNB-19 CNS; 7.52 µM in the experiment on SNB-75 CNS; > 100 µM in the experiment on PC-3 prostate; 10.2 µM with UACC-62 melanoma; 15.4 µM with COLO 205 colon. The concentration for total growth inhibition (TGI) in the experiment with OVCAR-4 ovarian is 27.3 µM; in the experiment with RPMI-8226 leukemia it was > 100 µM; in the experiment with HCT-15 colon, 44.7 µM; in the experiment on IGROV1 ovarian it was > 100 µM.

`COC(=O)c1c2c(c(C)[n+]([O-])c1C)C(=O)C(NCc1cccc(OC)c1)=CC2=O`: the GI50 in the experiment on HCT-116 colon is 2.53 µM; in the experiment on SNB-19 CNS it was 2.42 µM; in the experiment on SNB-75 CNS it was 3.03 µM; with PC-3 prostate it was 2.63 µM; in the experiment on UACC-62 melanoma, 1.7 µM; in the experiment on COLO 205 colon it was 1.1 µM. In addition, the GI50 with OVCAR-4 ovarian was 1.27 µM; in the experiment with RPMI-8226 leukemia, 2.93 µM; with HCT-15 colon it was 1.89 µM; in the experiment with IGROV1 ovarian, 1.69 µM. For the same compound, the TGI came out at 10 µM in the experiment with HCT-116 colon; 7 µM in the experiment with SNB-19 CNS; 12.9 µM with SNB-75 CNS; 14.8 µM in the experiment with PC-3 prostate; 3.48 µM in the experiment on UACC-62 melanoma; 2.86 µM with COLO 205 colon. The TGI with OVCAR-4 ovarian turned out to be 2.55 µM; with RPMI-8226 leukemia, 15.9 µM; in the experiment with HCT-15 colon it was 4.73 µM; in the experiment with IGROV1 ovarian, 4.11 µM.

On to `O=C1NC(=O)C2(CCC(O)C2)c2cc[n+]([O-])cc21` (stereo unspecified), for which the TGI in the experiment with HCT-116 colon, with SNB-19 CNS, in the experiment with SNB-75 CNS, in the experiment with PC-3 prostate, in the experiment with UACC-62 melanoma and with COLO 205 colon was > 100 µM each time. The TGI in the experiment on OVCAR-4 ovarian, with RPMI-8226 leukemia, in the experiment with HCT-15 colon and in the experiment on IGROV1 ovarian was > 100 µM in each case.

Consider `COC(=O)[C@@H](Cc1c[nH]c2ccccc12)NC(=O)/C=C/c1ccccc1`, for which the GI50 is 3.36 µM in the experiment with HCT-116 colon; 7.31 µM in the experiment with SNB-19 CNS; 2.42 µM with SNB-75 CNS; 3.22 µM in the experiment on PC-3 prostate; 3.97 µM in the experiment on UACC-62 melanoma; 12.4 µM with COLO 205 colon. Besides, the GI50 with OVCAR-4 ovarian is 5.71 µM; with RPMI-8226 leukemia, 3.48 µM; with HCT-15 colon, 3.31 µM; in the experiment on IGROV1 ovarian, 7.07 µM. For the same compound, the concentration for total growth inhibition (TGI) was > 100 µM with HCT-116 colon; > 100 µM in the experiment with SNB-19 CNS; > 100 µM in the experiment with SNB-75 CNS; 68.2 µM in the experiment on PC-3 prostate; > 100 µM in the experiment on UACC-62 melanoma; 50.3 µM in the experiment with COLO 205 colon. Besides, the TGI was > 100 µM in the experiment with OVCAR-4 ovarian, 33.7 µM in the experiment on RPMI-8226 leukemia, > 100 µM in the experiment on HCT-15 colon and > 100 µM with IGROV1 ovarian.

For `COc1ccccc1CNC(=O)C1c2ccccc2C(=O)N(CC(C)C)C1c1cccs1` (stereo unspecified), the GI50 is 15.3 µM in the experiment on HCT-116 colon; 28.8 µM with SNB-19 CNS; 18.1 µM with SNB-75 CNS; 15.9 µM in the experiment with PC-3 prostate; 14.7 µM with UACC-62 melanoma; 18.2 µM in the experiment with COLO 205 colon. Further, the GI50 in the experiment with OVCAR-4 ovarian is 26.2 µM; with RPMI-8226 leukemia it was 13.9 µM; in the experiment on HCT-15 colon, 20.8 µM; in the experiment on IGROV1 ovarian it was 22.4 µM. Moreover, the TGI with HCT-116 colon is 77.6 µM; in the experiment with SNB-19 CNS it was > 100 µM; with SNB-75 CNS, > 100 µM; in the experiment with PC-3 prostate it was > 100 µM; with UACC-62 melanoma, 38.6 µM; in the experiment on COLO 205 colon, 39.1 µM. The TGI was > 100 µM in the experiment on OVCAR-4 ovarian, 45.2 µM in the experiment with RPMI-8226 leukemia, > 100 µM in the experiment on HCT-15 colon and > 100 µM with IGROV1 ovarian.

Take `Cc1c2ncccc2nc2[nH]c3ccc(OCCN(C)C)cc3c12`: the GI50 is 0.552 µM with HCT-116 colon; 2.8 µM in the experiment with SNB-19 CNS; 1.86 µM with PC-3 prostate; 14.3 µM in the experiment on UACC-62 melanoma; 1.5 µM in the experiment on COLO 205 colon; 1.84 µM in the experiment on OVCAR-4 ovarian. Moreover, the GI50 is 2.13 µM in the experiment on RPMI-8226 leukemia, 1.33 µM in the experiment with HCT-15 colon and 2.13 µM in the experiment with IGROV1 ovarian. In addition, the TGI in the experiment with HCT-116 colon worked out at 12.3 µM; in the experiment with SNB-19 CNS, 26.7 µM; in the experiment on PC-3 prostate, 10.9 µM; with UACC-62 melanoma it was 39.3 µM; with COLO 205 colon, 7.94 µM; in the experiment on OVCAR-4 ovarian, 8.75 µM. Further, the TGI in the experiment on RPMI-8226 leukemia was 5.91 µM; in the experiment on HCT-15 colon, 16.3 µM; in the experiment with IGROV1 ovarian it was 16.5 µM.
